Results on 16 compounds are retold here after patent US20120295907A1, “INSECTICIDAL COMPOUNDS” (SYNGENTA CROP PROTECTION, LLC, priority 2009, published 2012).

The subject of data set [1] is Thrips tabaci. Description: Thrips tabaci (Onion Thrips) sunflower leaf disc spray test. It is filed as in vivo. The conditions noted are these: foliar, 168 h, 200 ppm spray on sunflower leaf discs, population of mixed ages, 7 days, mortality.
Data set [2] deals with Diabrotica balteata. Description: Diabrotica balteata (Corn Root Worm) artificial diet MTP test. The format is in vivo. The following applies: 120 h, 200 ppm (concentration in well 18 ppm), L2 larvae, 5 days, larval mortality, growth regulation.
Data set [3] concerns Spodoptera littoralis. As to the kind of experiment: Spodoptera littoralis (Egyptian Cotton Leafworm) cotton leaf disc spray test. It is filed as in vivo. The following applies: foliar, 72 h, 200 ppm spray on cotton leaf discs, L1 larvae, mortality, feeding behavior, growth regulation 3 DAT.
Data set [4] relates to Plutella xylostella. As to the kind of experiment: Plutella xylostella (Diamond Back Moth) artificial diet MTP test. It is filed as in vivo. The conditions noted are these: 144 h, 200 ppm (concentration in well 18 ppm), L2 larvae, 6 days, larval mortality, growth regulation.
Data set [5] deals with Heliothis virescens. As to the kind of experiment: Heliothis virescens (Tobacco Budworm) egg test on artificial diet. The format is in vivo. The conditions noted are these: 96 h, 200 ppm (concentration in well 18 ppm), eggs 0-24 h old on artificial diet, 4 days, egg mortality, larval mortality, growth regulation.
In data set [6] the test system is Myzus persicae. As to the kind of experiment: Myzus persicae (Green Peach Aphid) sunflower leaf disc spray test. It is filed as in vivo. The conditions noted are these: foliar, 144 h, 200 ppm spray on sunflower leaf discs, aphid population of mixed ages, 6 DAT, mortality.
Data set [7] deals with Tetranychus urticae. Description: Tetranychus urticae (Two-Spotted Spider Mite) bean leaf disc spray test. The format is in vivo. The following applies: foliar, 192 h, 200 ppm spray on bean leaf discs, mite populations of mixed ages, 8 days, egg, larval and adult mortality, read-out: control of Tetranychus urticae.

Molecules are shown by their SMILES.

In the case of `COc1c(NC(=O)c2cnc(Cl)nc2Cl)cccc1C(=O)Nc1c(Cl)cc(C(F)(C(F)(F)F)C(F)(F)C(F)(F)F)cc1Br` (stereo not shown) [B210], the melting point lay within 114 to 115 °C.

For the compound `COc1c(NC(=O)c2cc(C)c([N+](=O)[O-])c(C)c2)cccc1C(=O)Nc1c(Cl)cc(C(F)(C(F)(F)F)C(F)(F)C(F)(F)F)cc1Br` (stereo not shown) [B165], the melting point was determined as 218 °C.

Compound `CCOc1cc(C(=O)Nc2cccc(C(=O)Nc3c(Cl)cc(C(F)(C(F)(F)F)C(F)(F)C(F)(F)F)cc3Br)c2OC)ccc1[N+](=O)[O-]` (stereo not shown) [B173] displayed a melting point of 238 °C.

As to `COc1c(NC(=O)c2c(Cl)cc(Br)cc2Cl)cccc1C(=O)Nc1c(Cl)cc(C(F)(C(F)(F)F)C(F)(F)C(F)(F)F)cc1Br` (stereo not shown) [B209], the melting point was determined as 250 °C.

`COc1c(NC(=O)c2c(C)cc(Cl)cc2Cl)cccc1C(=O)Nc1c(Cl)cc(C(F)(C(F)(F)F)C(F)(F)C(F)(F)F)cc1Br` (stereo not shown) [B211] yielded a melting point of 113 to 118 °C.

As to `CCc1cc(C(F)(C(F)(F)F)C(F)(F)C(F)(F)F)cc(C)c1NC(=O)c1cccc(NC(=O)c2ccnc(Cl)c2)c1OC` (stereo not shown) [A10], the pest or weed control at 200 ppm in data set [1], in data set [2], in data set [3], in data set [4], in data set [5] and in data set [6] was not below 80% in each case. Also, the pest or weed control at 200 ppm in data set [7] is not below 80%.

Regarding `COc1c(NC(=O)c2ccc([N+](=O)[O-])cc2)cccc1C(=O)Nc1c(Cl)cc(C(F)(C(F)(F)F)C(F)(F)F)cc1Cl` [E5], the pest or weed control at 200 ppm in data set [1], in data set [2], in data set [3], in data set [4], in data set [5] and in data set [6] was not below 80% in each case. Also, the pest or weed control at 200 ppm in data set [7] was not below 80%.

Take `COc1c(NC(=O)c2cc(F)ccc2F)cccc1C(=O)Nc1c(Cl)cc(C(F)(C(F)(F)F)C(F)(F)C(F)(F)F)cc1Br` (stereo not shown) [B153]: the pest or weed control at 200 ppm in data set [1], in data set [2], in data set [3], in data set [4], in data set [5] and in data set [6] was not below 80% each time. Further, the pest or weed control at 200 ppm in data set [7] is not below 80%.

As to `COc1c(NC(=O)c2ccc(C#N)cc2)cccc1C(=O)Nc1c(Cl)cc(C(F)(C(F)(F)F)C(F)(F)F)cc1Cl` [E4], the pest or weed control at 200 ppm in data set [1], in data set [2], in data set [3], in data set [4], in data set [5] and in data set [6] was not below 80% throughout. Moreover, the pest or weed control at 200 ppm in data set [7] is not below 80%.

In the case of `COc1c(NC(=O)c2ccc(C#N)cn2)cccc1C(=O)Nc1c(Cl)cc(C(F)(C(F)(F)F)C(F)(F)C(F)(F)F)cc1Br` (stereo not shown) [B208], the melting point lay within 208 to 210 °C.

As for `COc1c(NC(=O)c2cncnc2)cccc1C(=O)Nc1c(Cl)cc(C(F)(C(F)(F)F)C(F)(F)C(F)(F)F)cc1Br` (stereo not shown) [B111], the pest or weed control at 200 ppm in data set [1], in data set [2], in data set [3], in data set [4], in data set [5] and in data set [6] was not below 80% in each case. The pest or weed control at 200 ppm in data set [7] was not below 80%.

`COc1c(NC(=O)c2ccccc2Br)cccc1C(=O)Nc1c(Cl)cc(C(F)(C(F)(F)F)C(F)(F)C(F)(F)F)cc1Br` (stereo not shown) [B36]: the pest or weed control at 200 ppm in data set [1], in data set [2], in data set [3], in data set [4], in data set [5] and in data set [6] was not below 80% throughout. Also, in data set [7], the pest or weed control at 200 ppm is not below 80%.

`COc1c(NC(=O)c2cc([N+](=O)[O-])c(F)cc2C)cccc1C(=O)Nc1c(Cl)cc(C(F)(C(F)(F)F)C(F)(F)C(F)(F)F)cc1Br` (stereo not shown) [B212] gave a melting point of 83 to 84 °C.

For `COc1c(NC(=O)c2ccccc2C)cccc1C(=O)Nc1c(Cl)cc(C(F)(C(F)(F)F)C(F)(F)C(F)(F)F)cc1Cl` (stereo not shown) [C4], the pest or weed control at 200 ppm in data set [1], in data set [2], in data set [3], in data set [4], in data set [5] and in data set [6] was not below 80% throughout. In addition, the pest or weed control at 200 ppm in data set [7] is not below 80%.

Compound `COc1cc([N+](=O)[O-])ccc1C(=O)Nc1cccc(C(=O)Nc2c(Cl)cc(C(F)(C(F)(F)F)C(F)(F)C(F)(F)F)cc2Br)c1OC` (stereo not shown) [B177] registered a melting point of 190 °C.

For the compound `COc1c(NC(=O)c2ccc(F)cc2)cccc1C(=O)Nc1c(Cl)cc(C(F)(C(F)(F)F)C(F)(F)C(F)(F)F)cc1Cl` (stereo not shown) [C19], the pest or weed control at 200 ppm in data set [1], in data set [2], in data set [3], in data set [4], in data set [5] and in data set [6] was not below 80% throughout. For the same compound, the pest or weed control at 200 ppm in data set [7] was not below 80%.

Broadly, the melting point is the temperature of the solid-liquid transition.
